Measurements as given in US12233161B1, “Lipids and lipid nanoparticle formulations” (LONGUIDE BIOPHARMA CORPORATION, priority 2024, dated 2025).

Key:
[1] = Particle size and PDI of nucleic acid lipid nanoparticle preparations by dynamic light scattering; type: physicochemical
Description: The 7.5 μL nucleic acid lipid nanoparticle solution (containing approximately 0.04 mg/mL mRNA) was taken and added with 200 μL ultrapure water, mixed by gentle blowing using a pipette tip, and the particle size of the nanopreparation was detected by dynamic lightscattering (DLS) using a Malvern Dynamic Light Scattering Instrument (Malvern Instruments Ltd., ZEN3700, UK).
27.5 μL nucleic acid lipid nanoparticle solution (containing about 0.04 mg/mL mRNA) was taken and added with 200 μL ultrapure water. A pipette tip was used to gently blow the sample and mix well. The particle size of the nanopreparation was detected by Malvern Dynamic Light Scattering Instrument (Malvern Instruments Ltd., ZEN3700, UK). After the detection, the sample was recovered to an EP tube, and 600 μL of ultrapure water was added, gently blown with a pipette tip, and the potential of the nanopreparation was measured by a Malvern particle size meter.

[2] = test system: mice; test: In vivo delivery of FLuc-mRNA lipid nanoparticles in mice, in vivo imaging (IVIS)
Procedure, shortened: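 Mice (n=3) received about 75 μL FLuc-mRNA LNP per mouse intramuscularly (rectus femoris), intravenously (tail vein), intraperitoneally or subcutaneously (back). After injection, D-luciferin (200 μL, 15 mg/mL) was given i.p. 10-15 min before IVIS imaging.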

[3] = DMG-PEG2000:DSPC:Chol:Lipid 0.95:7.58:26.47:65.00, N/P 18, mRNA LNP
[4] = DMG-PEG2000:DSPC:Chol:Lipid 1.40:11.15:38.95:48.50, N/P 18, mRNA LNP
[5] = DMG-PEG2000:DSPC:Chol:Lipid 1.40:11.15:38.95:48.50, N/P 18, IV, whole body scan
[6] = DMG-PEG2000:DSPC:Chol:Lipid 1.40:11.15:38.95:48.50, N/P 30, mRNA LNP
[7] = DMG-PEG2000:DSPC:Chol:Lipid 1.40:11.15:38.95:48.50, N/P 30, IM, whole body scan
[8] = DMG-PEG2000:DSPC:Chol:Lipid 1.40:11.15:38.95:48.50, N/P 30, IV, body (whole body scan)
[9] = DMG-PEG2000:DSPC:Chol:Lipid 1.40:11.15:38.95:48.50, N/P 18, IM, whole body scan

Row | PDI [1, 3] | Particle size [1, 3] [nm] | PDI [1, 4] | Particle size [1, 4] [nm] | PDI [1, 6] | Particle size [1, 6] [nm] | SMILES | IVIS ([2]; DMG-PEG2000:DSPC:Chol:Lipid 0.95:7.58:26.47:65.00, N/P 18, IM, whole body scan) | IVIS [2, 5] | IVIS [2, 7] | IVIS [2, 8] | IVIS [2, 9]
1 | 0.13 ± 0.01 | 121.27 ± 0.93 | 0.17 ± 0.01 | 85.45 ± 0.70 | – | – | CCCCCCCCCCOC(=O)C(O)CN(C)CCN(C)CCN(C)CC(O)C(=O)OCCCCCCCCCC (stereo not shown) [Compound L0275] | 1.47 × 10^6 | 4.52 × 10^5 | – | – | –
2 | – | – | – | – | 0.23 ± 0.02 | 98.58 ± 2.89 | CCCCCCCCCCCCOC(=O)C(O)CN(C)CCN(C)CCN(C)CC(O)C(=O)OCCCCCCCCCCCC (stereo not shown) [Compound L0276] | – | – | 1.81 × 10^6 | 1.60 × 10^5 | –
3 | – | – | 0.21 ± 0.00 | 99.36 ± 2.16 | – | – | CCCCCCCCCCNC(=O)C(O)CN(C)CCN(C)CCN(C)CC(O)C(=O)NCCCCCCCCCC (stereo not shown) [Compound L0277] | – | 4.28 × 10^5 | – | – | 2.60 × 10^5
4 | – | – | 0.23 ± 0.01 | 91.75 ± 0.80 | – | – | CCCCCCCCCCCCNC(=O)C(O)CN(C)CCN(C)CCN(C)CC(O)C(=O)NCCCCCCCCCCCC (stereo not shown) [Compound L0278] | – | 2.49 × 10^5 | – | – | 3.77 × 10^5
5 | – | – | – | – | 0.23 ± 0.02 | 150.80 ± 1.97 | CCCCCCOCOCCCCCCOC(=O)C(O)CN(C)CCN(C)CCN(C)CC(O)C(=O)OCCCCCCOCOCCCCCC (stereo not shown) [Compound L0279] | – | – | 2.87 × 10^5 | 5.19 × 10^5 | –
